Key:
[1] = test system: human lung cancer strain NCI-H441; assay type: cell-based
Procedure, shortened: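 Signal came from […] measured per well once the reagent was added. Beforehand, cells were cultured at 37°C and 5% carbon dioxide on a compound series serially diluted in dimethyl sulfoxide.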

[2] = target: HRAS wild-type protein (Homo sapiens, UniProt P01112); assay: Binding to HRAS by surface plasmon resonance (SPR), KD and KD ratio to KRAS; conditions: ratio of KD for HRAS wild-type protein to KD for KRAS
Chain of HRAS wild-type protein (P01112 whole entry): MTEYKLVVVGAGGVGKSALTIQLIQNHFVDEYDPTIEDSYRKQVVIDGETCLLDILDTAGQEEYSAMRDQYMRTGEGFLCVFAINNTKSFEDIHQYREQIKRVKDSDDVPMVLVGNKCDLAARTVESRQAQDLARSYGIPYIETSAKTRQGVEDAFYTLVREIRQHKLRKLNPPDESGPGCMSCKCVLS
Procedure, shortened: (§1)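 Measured at 30°C: SPR with GDP-loaded, E. coli-expressed biotin-Avi RAS captured (~100–300 RU), ascending 75 s compound injections, HBS pH 7.4 with GDP, MgCl2, 4% DMSO. KD from 1:1 fit.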

[3] = target: GDP-bound NRAS wild-type protein (Homo sapiens, UniProt P01111); assay: Binding to NRAS by surface plasmon resonance (SPR), KD and KD ratio to KRAS; conditions: ratio of KD for GDP-bound NRAS wild-type protein to KD for KRAS
Chain of GDP-bound NRAS wild-type protein (P01111 whole entry): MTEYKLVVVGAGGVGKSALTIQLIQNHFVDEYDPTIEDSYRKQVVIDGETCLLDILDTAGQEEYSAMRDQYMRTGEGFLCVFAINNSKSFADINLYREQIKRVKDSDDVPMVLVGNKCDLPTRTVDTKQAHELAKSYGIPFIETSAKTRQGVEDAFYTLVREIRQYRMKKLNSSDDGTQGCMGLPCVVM
Procedure, shortened: as §1

| Structure (SMILES) | IC50 [1] | HRAS /KRAS [2] | NRAS /KRAS [3] |
| --- | --- | --- | --- |
| CCO[C@@H]1C[C@H]2C(=O)NC3(CCC3)C(=O)N(C)[C@@H](C3CCCC3)C(=O)N(C)[C@H](C(=O)N3CCOCC3)CC(=O)N(C)[C@@H](CC)C(=O)N[C@@H]([C@@H](C)CC)C(=O)N(C)CC(=O)N(C)[C@H]3C[C@@H](C)CCN(C3=O)[C@@H](Cc3ccc(C(F)(F)F)cc3)C(=O)N(C)CC(=O)N[C@@H](CCc3cc(F)c(C(F)(F)F)c(F)c3)C(=O)N2C1 [PP1027] | 7.2 nM | B (a compound having 3 or more and less than 10 is denoted as B) | C (A compound having a KD ratio of 0.1 or more and less than 3 is denoted as C) |
| CCO[C@@H]1C[C@H]2C(=O)NC3(CCC3)C(=O)N(C)[C@@H](C3CCCC3)C(=O)N(C)[C@H](C(=O)N3CCOCC3)CC(=O)N(C)[C@@H](CC)C(=O)N[C@@H]([C@@H](C)CC)C(=O)N3CC[C@H]3C(=O)N(C)[C@H]3C[C@@H](C)CCN(C3=O)[C@@H](Cc3ccc(C(F)(F)F)cc3)C(=O)N(C)CC(=O)N[C@@H](CCc3cc(F)c(C(F)(F)F)c(F)c3)C(=O)N2C1 [PP1028] | 17.3 nM | B (a compound having 3 or more and less than 10 is denoted as B) | B (a compound having 3 or more and less than 10 is denoted as B) |
| CCO[C@@H]1C[C@H]2C(=O)NC3(CCCC3)C(=O)N(C)[C@@H](C3CCCC3)C(=O)N(C)[C@H](C(=O)N3CCOCC3)CC(=O)N(C)[C@@H](CC)C(=O)N[C@@H]([C@@H](C)CC)C(=O)N(C)CC(=O)N(C)[C@H]3C[C@@H](C)CCN(C3=O)[C@@H](Cc3ccc(C(F)(F)F)cc3)C(=O)N(C)CC(=O)N[C@@H](CCc3cc(F)c(C(F)(F)F)c(F)c3)C(=O)N2C1 [PP1029] | 24.3 nM | B (a compound having 3 or more and less than 10 is denoted as B) | C (A compound having a KD ratio of 0.1 or more and less than 3 is denoted as C) |
| CCO[C@@H]1C[C@H]2C(=O)NC3(CCCC3)C(=O)N(C)[C@@H](C3CCCC3)C(=O)N(C)[C@H](C(=O)N(C)C)CC(=O)N(C)[C@@H](CC(C)C)C(=O)N[C@@H]([C@@H](C)CC)C(=O)N(C)CC(=O)N(C)[C@H]3CC(C)=CCN(C3=O)[C@@H](Cc3ccc(C(F)(F)F)cc3)C(=O)N(C)CC(=O)N[C@@H](CCc3cc(F)c(C(F)(F)F)c(F)c3)C(=O)N2C1 [PP1031] | 86.2 nM | C (A compound having a KD ratio of 0.1 or more and less than 3 is denoted as C) | C (A compound having a KD ratio of 0.1 or more and less than 3 is denoted as C) |
| CCO[C@@H]1C[C@H]2C(=O)NC3(CCC3)C(=O)N(C)[C@@H](C3CCCC3)C(=O)N(C)[C@H](C(=O)N(C)C)CC(=O)N(C)[C@@H](CC(C)C)C(=O)N[C@@H]([C@@H](C)CC)C(=O)N3CC[C@H]3C(=O)N(C)[C@H]3CC(C)=CCN(C3=O)[C@@H](Cc3ccc(C(F)(F)F)cc3)C(=O)N(C)CC(=O)N[C@@H](CCc3cc(F)c(C(F)(F)F)c(F)c3)C(=O)N2C1 [PP1033] | 67.2 nM | C (A compound having a KD ratio of 0.1 or more and less than 3 is denoted as C) | C (A compound having a KD ratio of 0.1 or more and less than 3 is denoted as C) |
| CCO[C@@H]1C[C@H]2C(=O)NC3(CCC3)C(=O)N(C)[C@@H](C3CCCC3)C(=O)N(C)[C@H](C(=O)N(C)C)CC(=O)N(C)[C@@H](CC)C(=O)N[C@@H]([C@@H](C)CC)C(=O)N(C)CC(=O)N(C)[C@H]3CC(C)=CCN(C3=O)[C@@H](Cc3ccc(C(F)(F)F)cc3)C(=O)N(C)CC(=O)N[C@@H](CCc3cc(F)c(C(F)(F)F)c(F)c3)C(=O)N2C1 [PP1034] | 96.8 nM | C (A compound having a KD ratio of 0.1 or more and less than 3 is denoted as C) | C (A compound having a KD ratio of 0.1 or more and less than 3 is denoted as C) |
| CCO[C@@H]1C[C@H]2C(=O)NC3(CCC3)C(=O)N(C)[C@@H](C3CCCC3)C(=O)N(C)[C@H](C(=O)N(C)C)CC(=O)N(C)[C@@H](CC)C(=O)N[C@@H]([C@@H](C)CC)C(=O)N3CC[C@H]3C(=O)N(C)[C@H]3CC(C)=CCN(C3=O)[C@@H](Cc3ccc(C(F)(F)F)cc3)C(=O)N(C)CC(=O)N[C@@H](CCc3cc(F)c(C(F)(F)F)c(F)c3)C(=O)N2C1 [PP1035] | 128 nM | C (A compound having a KD ratio of 0.1 or more and less than 3 is denoted as C) | C (A compound having a KD ratio of 0.1 or more and less than 3 is denoted as C) |
| CCO[C@@H]1C[C@H]2C(=O)NC3(CCCC3)C(=O)N(C)[C@@H](C3CCCC3)C(=O)N(C)[C@H](C(=O)N(C)C)CC(=O)N(C)[C@@H](CC)C(=O)N[C@@H]([C@@H](C)CC)C(=O)N(C)CC(=O)N(C)[C@H]3CC(C)=CCN(C3=O)[C@@H](Cc3ccc(C(F)(F)F)cc3)C(=O)N(C)CC(=O)N[C@@H](CCc3cc(F)c(C(F)(F)F)c(F)c3)C(=O)N2C1 [PP1036] | 150 nM | C (A compound having a KD ratio of 0.1 or more and less than 3 is denoted as C) | C (A compound having a KD ratio of 0.1 or more and less than 3 is denoted as C) |
| CCO[C@@H]1C[C@H]2C(=O)NC3(CCCC3)C(=O)N(C)[C@@H](C3CCCC3)C(=O)N(C)[C@H](C(=O)N3CCOCC3)CC(=O)N(C)[C@@H](CC(C)C)C(=O)N[C@@H]([C@@H](C)CC)C(=O)N(C)CC(=O)N(C)[C@H]3CC(C)=CCN(C3=O)[C@@H](Cc3ccc(C(F)(F)F)cc3)C(=O)N(C)CC(=O)N[C@@H](CCc3cc(F)c(C(F)(F)F)c(F)c3)C(=O)N2C1 [PP1038] | 188 nM | C (A compound having a KD ratio of 0.1 or more and less than 3 is denoted as C) | C (A compound having a KD ratio of 0.1 or more and less than 3 is denoted as C) |
| CCO[C@@H]1C[C@H]2C(=O)NC3(CCC3)C(=O)N(C)[C@@H](C3CCCC3)C(=O)N(C)[C@H](C(=O)N3CCOCC3)CC(=O)N(C)[C@@H](CC(C)C)C(=O)N[C@@H]([C@@H](C)CC)C(=O)N3CC[C@H]3C(=O)N(C)[C@H]3CC(C)=CCN(C3=O)[C@@H](Cc3ccc(C(F)(F)F)cc3)C(=O)N(C)CC(=O)N[C@@H](CCc3cc(F)c(C(F)(F)F)c(F)c3)C(=O)N2C1 [PP1040] | 18.7 nM | C (A compound having a KD ratio of 0.1 or more and less than 3 is denoted as C) | C (A compound having a KD ratio of 0.1 or more and less than 3 is denoted as C) |
| CCO[C@@H]1C[C@H]2C(=O)NC3(CCC3)C(=O)N(C)[C@@H](C3CCCC3)C(=O)N(C)[C@H](C(=O)N3CCOCC3)CC(=O)N(C)[C@@H](CC)C(=O)N[C@@H]([C@@H](C)CC)C(=O)N(C)CC(=O)N(C)[C@H]3CC(C)=CCN(C3=O)[C@@H](Cc3ccc(C(F)(F)F)cc3)C(=O)N(C)CC(=O)N[C@@H](CCc3cc(F)c(C(F)(F)F)c(F)c3)C(=O)N2C1 [PP1041] | 223 nM | C (A compound having a KD ratio of 0.1 or more and less than 3 is denoted as C) | C (A compound having a KD ratio of 0.1 or more and less than 3 is denoted as C) |
| CCO[C@@H]1C[C@H]2C(=O)NC3(CCC3)C(=O)N(C)[C@@H](C3CCCC3)C(=O)N(C)[C@H](C(=O)N3CCOCC3)CC(=O)N(C)[C@@H](CC)C(=O)N[C@@H]([C@@H](C)CC)C(=O)N3CC[C@H]3C(=O)N(C)[C@H]3CC(C)=CCN(C3=O)[C@@H](Cc3ccc(C(F)(F)F)cc3)C(=O)N(C)CC(=O)N[C@@H](CCc3cc(F)c(C(F)(F)F)c(F)c3)C(=O)N2C1 [PP1042] | 349 nM | C (A compound having a KD ratio of 0.1 or more and less than 3 is denoted as C) | C (A compound having a KD ratio of 0.1 or more and less than 3 is denoted as C) |

Source: patent EP4603105A1, “PHARMACEUTICAL COMPOSITION CONTAINING CYCLIC COMPOUND HAVING SELECTIVE KRAS INHIBITORY EFFECT AGAINST HRAS AND NRAS” (CHUGAI SEIYAKU KABUSHIKI KAISHA, priority 2022, dated 2024)
